22 compounds from patent publication US12098145B2 (Libra Therapeutics, Inc., priority 2022, dated 2024) can be followed below.

Each structure is given as a SMILES string.

One experiment addresses T1, TRPML1 (Homo sapiens, UniProt Q9GZU1).
T1 construct: expressed in transfected cells; host or cells: HEK T-REx cells stably expressing GCaMP6f and TRPML1
The experiment in a line: Cellular TRPML1 assay (FLIPR, GCaMP6f calcium read-out). The class given is cell-based. The conditions noted are these: HEKT-REx/GCaMP6f/TRPML1 cells, FLIPR TETRA, kinetic response over 300 seconds; read-out: TRPML1 FLIPR pEC50 (converted). In a few lines: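 HEK T-REx cells stably expressing TRPML1 and GCaMP6f, seeded 24 h before in Optimem + 0.5% FBS. After ~10 min pre-incubation at room temperature, compounds in Ca2+-free Tyrode's buffer were injected on FLIPR Tetra (final DMSO 0.5%). Calcium fluorescence kinetics followed for 300 s.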

In the next experiment the test system is TFEB. Briefly: TFEB translocation assay (TFEB reporter in U2OS cells, imaging). The class given is cell-based. The conditions noted are these: Homo sapiens; U2OS cell line with TFEB reporter, 2 hours incubation, nucleus to cytoplasm ratio, normalized to Torin-1; read-out: TFEB Translocation pEC50 (converted). In a few lines: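 U2OS cells stably expressing mRFP-fused TFEB reporter, switched to Opti-MEM then treated 2 h at 37 °C with compounds (0.5% DMSO, 0.015% Tween 80). Hoechst-stained, PFA-fixed cells imaged at 20×; nucleus/cytoplasm intensity ratio per well normalized to Torin-1 (100%) and DMSO (0%).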

T1 sequence (Q9GZU1 whole entry): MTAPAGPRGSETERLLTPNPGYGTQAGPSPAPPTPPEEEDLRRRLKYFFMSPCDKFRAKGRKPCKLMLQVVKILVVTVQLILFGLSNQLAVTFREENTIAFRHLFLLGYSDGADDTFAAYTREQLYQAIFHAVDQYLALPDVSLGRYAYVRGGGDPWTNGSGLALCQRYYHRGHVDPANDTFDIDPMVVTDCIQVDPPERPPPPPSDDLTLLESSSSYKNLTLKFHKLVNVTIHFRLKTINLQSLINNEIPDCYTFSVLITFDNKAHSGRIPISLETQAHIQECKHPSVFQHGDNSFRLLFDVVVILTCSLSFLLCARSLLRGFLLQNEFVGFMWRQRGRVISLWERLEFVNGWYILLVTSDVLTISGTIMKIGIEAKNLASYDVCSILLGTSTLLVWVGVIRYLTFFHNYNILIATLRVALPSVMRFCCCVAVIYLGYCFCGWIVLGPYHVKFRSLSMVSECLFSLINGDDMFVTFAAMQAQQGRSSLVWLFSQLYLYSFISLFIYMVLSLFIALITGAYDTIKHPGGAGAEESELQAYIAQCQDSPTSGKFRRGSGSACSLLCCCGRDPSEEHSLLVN

`CCC1(OC)CN(c2nc(C(=O)Nc3ccc(OC4CC5CC(C5)C4)c(F)c3)c(CC(F)(F)F)o2)C1` (centres unmarked) [Example 149, N-(4-(bicyclo[3.1.1]heptan-3-yloxy)-3-fluorophenyl)-2-(3-ethyl-3-methoxyazetidin-1-yl)-5-(2,2,2-trifluoroethyl)oxazole-4-carboxamide]: the EC50 on TRPML1 and in the experiment on TFEB was 0.01 to 1 µM throughout.

As to `CCC1(OC)CN(c2nc(C(=O)Nc3cc(F)c(OC4CC5CCC4C5)c(F)c3)c(CC(F)(F)F)o2)C1` (centres unmarked) [Example 150, N-(4-(bicyclo[2.2.1]heptan-2-yloxy)-3,5-difluorophenyl)-2-(3-ethyl-3-methoxyazetidin-1-yl)-5-(2,2,2-trifluoroethyl)oxazole-4-carboxamide], the EC50 at TRPML1 and in the experiment with TFEB was 0.01 to 1 µM each time.

Turning to `O=C(Nc1ccc(O[C@@H]2CC3C[C@@H]3C2)c(F)c1)c1nc(N2CCC3CC32)oc1CC(F)(F)F` (stereo partly drawn) [Example 154, 2-(2-azabicyclo[3.1.0]hexan-2-yl)-N-(4-(cis-bicyclo[3.1.0]hexan-3-yloxy)-3-fluorophenyl)-5-(2,2,2-trifluoroethyl)oxazole-4-carboxamide], the EC50 on TRPML1 and in the experiment on TFEB was 0.01 to 1 µM in each case.

Regarding `CCC1(CC)CN(c2nc(C(=O)Nc3cc(F)c(OC4CCC5CC54)c(F)c3)c(CC(F)(F)F)o2)C1` (centres unmarked) [Example 155, N-(4-(bicyclo[3.1.0]hexan-2-yloxy)-3,5-difluorophenyl)-2-(3,3-diethylazetidin-1-yl)-5-(2,2,2-trifluoroethyl)oxazole-4-carboxamide], the EC50 on TRPML1 and in the experiment with TFEB was 0.01 to 1 µM in each case.

Take `O=C(Nc1ccc(O[C@@H]2C[C@@H]3C[C@@H]3C2)c(F)c1)c1nc(N2CC3CC3C2)oc1CC(F)(F)F` (stereo partly drawn) [Example 156, 2-(3-azabicyclo[3.1.0]hexan-3-yl)-N-(4-(cis-bicyclo[3.1.0]hexan-3-yloxy)-3-fluorophenyl)-5-(2,2,2-trifluoroethyl)oxazole-4-carboxamide]: the EC50 on TRPML1 and in the experiment with TFEB was 0.01 to 1 µM throughout.

For `O=C(Nc1cc(F)c(O[C@@H]2C[C@@H]3C[C@@H]3C2)c(F)c1)c1nc(N2CCC3OCCC32)oc1CC(F)(F)F` (stereo partly drawn) [Example 157, N-(4-(cis-bicyclo[3.1.0]hexan-3-yloxy)-3,5-difluorophenyl)-2-(hexahydro-4H-furo[3,2-b]pyrrol-4-yl)-5-(2,2,2-trifluoroethyl)oxazole-4-carboxamide], the EC50 on TRPML1 and in the experiment on TFEB was 0.01 to 1 µM in each case.

Regarding `CCC1(OC)CN(c2nc(C(=O)Nc3ccc(O[C@@H]4C[C@@H]5C[C@@H]5C4)c(F)c3)c(CC(F)(F)F)o2)C1` [Example 159, N-(4-(cis-bicyclo[3.1.0]hexan-3-yloxy)-3-fluorophenyl)-2-(3-ethyl-3-methoxyazetidin-1-yl)-5-(2,2,2-trifluoroethyl)oxazole-4-carboxamide], the EC50 at TRPML1 and in the experiment on TFEB was 0.01 to 1 µM in each case.

Take `O=C(Nc1ccc(O[C@@H]2C[C@@H]3C[C@@H]3C2)c(F)c1)c1nc(N2CC3CCC3C2)oc1CC(F)(F)F` (stereo partly drawn) [Example 161, N-(4-(cis-bicyclo[3.1.0]hexan-3-yloxy)-3-fluorophenyl)-2-(3-azabicyclo[3.2.0]heptan-3-yl)-5-(2,2,2-trifluoroethyl)oxazole-4-carboxamide]: the EC50 at TRPML1 and with TFEB was 0.01 to 1 µM in each case.

Consider `O=C(Nc1ccc(O[C@@H]2C[C@@H]3C[C@@H]3C2)c(F)c1)c1nc(N2CCC3CCCC32)oc1CC(F)(F)F` (stereo partly drawn) [Example 162, N-(4-(cis-bicyclo[3.1.0]hexan-3-yloxy)-3-fluorophenyl)-2-(hexahydrocyclopenta[b]pyrrol-1(2H)-yl)-5-(2,2,2-trifluoroethyl)oxazole-4-carboxamide], for which the EC50 at TRPML1 and in the experiment with TFEB was 0.01 to 1 µM in each case.

Regarding `O=C(Nc1cc(F)c(O[C@@H]2C[C@@H]3C[C@@H]3C2)c(F)c1)c1nc(N2CCC3CCCCC32)oc1CC(F)(F)F` (stereo partly drawn) [Example 163, N-(4-(cis-bicyclo[3.1.0]hexan-3-yloxy)-3,5-difluorophenyl)-2-(octahydro-1H-indol-1-yl)-5-(2,2,2-trifluoroethyl)oxazole-4-carboxamide], the EC50 on TRPML1 and in the experiment on TFEB was 0.01 to 1 µM each time.

`COC1(C)CN(c2nc(C(=O)Nc3cc(C)c(O[C@@H]4C[C@@H]5C[C@@H]5C4)c(F)c3)c(CC(F)(F)F)o2)C1` [Example 164, N-(4-(cis-bicyclo[3.1.0]hexan-3-yloxy)-3-fluoro-5-methylphenyl)-2-(3-methoxy-3-methylazetidin-1-yl)-5-(2,2,2-trifluoroethyl)oxazole-4-carboxamide]: the EC50 at TRPML1 and in the experiment on TFEB was 0.01 to 1 µM in each case.

For the compound `CCC1(COC)CN(c2nc(C(=O)Nc3cc(F)c(O[C@@H]4C[C@@H]5C[C@@H]5C4)c(F)c3)c(CC(F)(F)F)o2)C1` [Example 165, N-(4-(cis-bicyclo[3.1.0]hexan-3-yloxy)-3,5-difluorophenyl)-2-(3-ethyl-3-(methoxymethyl)azetidin-1-yl)-5-(2,2,2-trifluoroethyl)oxazole-4-carboxamide], the EC50 at TRPML1 and in the experiment with TFEB was 0.01 to 1 µM throughout.

On to `O=C(Nc1cc(F)c(O[C@@H]2C[C@@H]3C[C@@H]3C2)c(F)c1)c1nc(N2CCC23CCC3)oc1CC(F)(F)F` [Example 170, N-(4-(cis-bicyclo[3.1.0]hexan-3-yloxy)-3,5-difluorophenyl)-2-(1-azaspiro[3.3]heptan-1-yl)-5-(2,2,2-trifluoroethyl)oxazole-4-carboxamide], for which the EC50 on TRPML1 and in the experiment with TFEB was 0.01 to 1 µM throughout.

`O=C(Nc1ccc(O[C@@H]2C[C@@H]3C[C@@H]3C2)c(F)c1)c1nc(N2CC3(CCOCC3)C2)oc1CC(F)(F)F` [Example 171, N-(4-(cis-bicyclo[3.1.0]hexan-3-yloxy)-3-fluorophenyl)-2-(7-oxa-2-azaspiro[3.5]nonan-2-yl)-5-(2,2,2-trifluoroethyl)oxazole-4-carboxamide]: the EC50 at TRPML1 and in the experiment with TFEB was 0.01 to 1 µM each time.

Take `CC1(C)CCCN1c1nc(C(=O)Nc2cc(F)c(O[C@@H]3C[C@@H]4C[C@@H]4C3)c(F)c2)c(CC(F)(F)F)o1` [Example 172, N-(4-(cis-bicyclo[3.1.0]hexan-3-yloxy)-3,5-difluorophenyl)-2-(2,2-dimethylpyrrolidin-1-yl)-5-(2,2,2-trifluoroethyl)oxazole-4-carboxamide]: the EC50 on TRPML1 and in the experiment with TFEB was 0.01 to 1 µM each time.

Consider `O=C(Nc1cc(F)c(O[C@@H]2C[C@@H]3C[C@@H]3C2)c(F)c1)c1nc(N2CC3(CCCO3)C2)oc1CC(F)(F)F` [Example 173, N-(4-(cis-bicyclo[3.1.0]hexan-3-yloxy)-3,5-difluorophenyl)-2-(5-oxa-2-azaspiro[3.4]octan-2-yl)-5-(2,2,2-trifluoroethyl)oxazole-4-carboxamide], for which the EC50 on TRPML1 and in the experiment with TFEB was 0.01 to 1 µM each time.

As to `O=C(Nc1cc(F)c(O[C@@H]2C[C@@H]3C[C@@H]3C2)c(F)c1)c1nc(N2CCCCCC2)oc1CC(F)(F)F` [Example 174, 2-(azepan-1-yl)-N-(4-(cis-bicyclo[3.1.0]hexan-3-yloxy)-3,5-difluorophenyl)-5-(2,2,2-trifluoroethyl)oxazole-4-carboxamide], the EC50 at TRPML1 and with TFEB was 0.01 to 1 µM in each case.

As for `O=C(Nc1cc(F)c(OC2CC3C[C@@H]3C2)c(F)c1)c1nc(N2CC3CCC3C2)oc1CC(F)(F)F` (stereo partly drawn) [Example 177, N-(4-(cis-bicyclo[3.1.0]hexan-3-yloxy)-3,5-difluorophenyl)-2-(3-azabicyclo[3.2.0]heptan-3-yl)-5-(2,2,2-trifluoroethyl)oxazole-4-carboxamide], the EC50 at TRPML1 and in the experiment with TFEB was 0.01 to 1 µM throughout.

For `COC1(C)CN(c2nc(C(=O)Nc3cc(F)c(O[C@@H]4C[C@@H]5C[C@@H]5C4)c(F)c3)c(CC(F)(F)F)o2)C1` [Example 178, N-(4-(cis-bicyclo[3.1.0]hexan-3-yloxy)-3,5-difluorophenyl)-2-(3-methoxy-3-methylazetidin-1-yl)-5-(2,2,2-trifluoroethyl)oxazole-4-carboxamide], the EC50 at TRPML1 and in the experiment on TFEB was 0.01 to 1 µM in each case.

With `O=C(Nc1cc(F)c(OC2CC3C[C@H]3C2)c(F)c1)c1nc(N2C[C@H]3CCO[C@H]3C2)oc1CC(F)(F)F` (stereo partly drawn) [Example 179, N-(4-(cis-bicyclo[3.1.0]hexan-3-yloxy)-3,5-difluorophenyl)-2-((3aR,6aR)-hexahydro-5H-furo[2,3-c]pyrrol-5-yl)-5-(2,2,2-trifluoroethyl)oxazole-4-carboxamide], the EC50 at TRPML1 and in the experiment with TFEB was 0.01 to 1 µM in each case.

As to `O=C(Nc1cc(F)c(OC2CC3C[C@H]3C2)c(F)c1)c1nc(N2C[C@@H]3CCO[C@@H]3C2)oc1CC(F)(F)F` (stereo partly drawn) [Example 180, N-(4-(cis-bicyclo[3.1.0]hexan-3-yloxy)-3,5-difluorophenyl)-2-((3aS,6aS)-hexahydro-5H-furo[2,3-c]pyrrol-5-yl)-5-(2,2,2-trifluoroethyl)oxazole-4-carboxamide], the EC50 on TRPML1 and with TFEB was 0.01 to 1 µM each time.

Take `CCC1(CC)CN(c2nc(C(=O)Nc3cc(F)c(O[C@@H]4C[C@@H]5C[C@@H]5C4)c(F)c3)c(CC(F)(F)F)o2)C1` [Example 183, N-(4-(cis-bicyclo[3.1.0]hexan-3-yloxy)-3,5-difluorophenyl)-2-(3,3-diethylazetidin-1-yl)-5-(2,2,2-trifluoroethyl)oxazole-4-carboxamide]: the EC50 on TRPML1 and in the experiment on TFEB was 0.01 to 1 µM in each case.
